≈ marks a conversion by molar mass, not a printed value. Like-named read-outs stand apart in the source and are kept apart here.
How the values were obtained:
[1] = system: Staphylococcus aureus 9203; assay: S. aureus intracellular killing assay in bovine PMN; assay type: cell-based; conditions: overnight incubation (18 to 21 hours)
Experimental: The therapeutic effect of the rifamycin derivative (1) was determined by S. aureus intracellular killing assay in bovine polymorphonuclear neutrophil (PMN).
The procedure for PMN isolation was as described in Carlton et al. (Proc. Soc. Exp. Biol. Med. 142: 853-858 (1973)).
Bovine blood collected by venipuncture in 50-ml syringes containing 1.5% EDTA (pH 6.8) was centrifuged at 1,000×g for 25 min. The plasma-buffer layer and the top few millileters were discarded. The packed erythrocyte fraction was pooled in 0.8% NaCl-phosphate buffer (pH 6.8) and 10 ml was placed in 20 ml of sterile water for 40 seconds to lyse the erythrocytes. Immediately thereafter, 10 ml of a 2.7% NaCl-phosphate buffer solution was added to restore isotonicity. The leukocytes, consisting of ≦84% PMNs, were washed twice and suspended in HBSS. PMNs were adjusted to a final concentration of 10^7 cells per ml.
The intracellular killing assay was carried out as described in Sanchez et al. (Antimicrobial Agents and Chemotherapy 29(4): 634-638 (1986)).
Bovine blood PMNs and bacteria (1:1) were suspended in HBSS containing 10% heterologous bovine serum. The mixture was incubated for 90 minutes at 37° C. in Erlenmeyer flasks with rotational mixing at 110 rpm. Lysostaphin (5 μg/ml) was added to the mixture for the final 15 minutes of incubation. The infected PMNs were washed 3 times by low-speed centrifugation and suspended in HBSS. Cells were pipetted (1 ml) into each well of a six-well cluster dish (Bellco Glass, Inc., Vineland, N.J.) at 5×10^6 PMNs per well. PMNs were allowed to attach and form a monolayer for 10 minutes at 37° C. The supernatant fluid with unattached cells was discarded, and 2 ml of fresh HBSS was added to each well. The rifamycin derivatives to be tested were then added to the wells (one six-well plate per drug). These derivatives were dissolved in dimethylsulfoxide, and then diluted in HBSS to final solvent concentrations of 0.01% (vol/vol) or less.
After overnight incubation (18 to 21 hours) at 37° C. with 1% CO2, lysostaphin (5 μg/ml) was added to each well for 15 min (at 37° C.) to kill extracellular bacteria. The monolayers were washed with HBSS, and the cells were lysed by addition of 1 ml of water to each well. The number of viable bacteria was then estimated by plate counts on brain heart infusion agar. […] The results are shown in Table 2, wherein R is the alkyl group in the rifamycin derivative (1).

[2] = system: Staphylococcus aureus 9203; assay: MIC against the strain of the intracellular killing assay; assay type: cell-based
S. aureus B83-1 [3] = assay: Mutation frequency for resistance, strain B83-1; assay type: cell-based, Staphylococcus aureus
Experimental: (§1) The mutation frequency for development of resistance to the rifamycin derivative (1) as compared to rifampin was determined with selected Staphylococcus aureus strains.
(§2) Four S. aureus strains were used: S. aureus 30857, a rifampin-resistant isolate: S. aureus 6097, a strain used in the mouse mastitis test and originally from a case of gangrenous bovine mastitis; S. aureus B83-1, derived from the Newbould 305 strain; and S. aureus ATCC 29213, the in vitro control stain recommended by NCCLS.
(§3) All S. aureus strains were maintained on 3 mm glass beads immersed in trypticase soy broth (BBL Microbiology Systems, Cockeysville, Md.) with 10% glycerol and held at −70° C. until revived. Prior to testing, the strains were subcultured on tryptose blood agar base (Difco, Detroit, Mich.) supplemented with 5% sheep blood for 24 hours at 35° C.
(§4) These compounds were dissolved in 95% ethanol, a solution which was then diluted to 10% ethanol with sterile distilled water. Further dilutions were conducted in water.
(§5) The mutation frequency for development of resistance to the compounds tested was determined by the following method. A single colony of each strain was removed from the surface of a blood agar plate with a cotton swab, suspended in 5 ml of Mueller-Hinton broth (BBL), and streaked on the entire surface of five Mueller-Hinton agar plates. The plates were incubated overnight under aerobic conditions at 35° C., growth was removed from the agar using a sterile cotton swab, and the bacteria were suspended in 10 ml physiological saline. This bacterial suspension was the inoculum for the mutation frequency determinations. Standard plate counts were performed on the inoculum by performing serial dilutions and plating a 0.1 ml aliquot on the surface of ten Mueller-Hinton agar plates at each concentration. The plates were incubated for 18-24 hours at 35° C. under aerobic conditions and colony counts performed. Mean bacterial counts were calculated for the inoculum with each strain.
(§6) A 0.1 ml aliquot of the inoculum was then used to inoculate the entire surface of ten plates each containing 1, 10, and 100 μg/ml of the test antimicrobial agents. The plates were incubated for 18-24 hours at 35° C. under aerobic conditions and colony counts performed. Mean bacterial counts were calculated for each antimicrobial concentration and the mutation frequency calculated by dividing the number of colonies which grew on the drug containing media by the inoculum size.

S. aureus ATCC 29213 [4] = assay: Mutation frequency for resistance, strain ATCC 29213; assay type: cell-based, Staphylococcus aureus
Experimental: as §1, §2, §3, §4, §5, §6

[5] = system: Staphylococcus aureus 6097; assay: Dose titration in the mouse mastitis model (S. aureus-induced murine mastitis); assay type: in vivo; conditions: mice, read 6 days after infection; for ED (mg/kg/d) Mastitis: 50% of mice without mastitis; for ED (mg/kg/d) Culture: 50% of mice with no bacteria cultured from gland
S. aureus ATCC 29213 [6] = assay: MIC, microbroth dilution, strain ATCC 29213; assay type: cell-based, Staphylococcus aureus
Experimental: as §2, §3, §4
(§7) MIC (Minimum Inhibitory Concentration) determinations were performed using the microbroth dilution method. (National Committee for Clinical Laboratory Standards, 1990 Approved Standard […]. Methods for dilution antimicrobial susceptibility tests for bacteria that grow aerobically, 3rd edition. National Committee for Clinical Laboratory Standards, Villanova, Pa.) The results are shown in Table 3, wherein R is the alkyl group R in the rifamycin derivative (1).

[7] = system: S. aureus 30857, a rifampin-resistant isolate; assay: MIC, microbroth dilution, strain 30857; assay type: cell-based, Staphylococcus aureus; conditions: for MIC: strain 30857
Experimental: as §2, §3, §4, §7

S. aureus 6097 = assay: MIC, microbroth dilution, strain 6097; assay type: cell-based, Staphylococcus aureus
Experimental: as §2, §3, §4, §7

S. aureus B83-1 [8] = assay: MIC, microbroth dilution, strain B83-1; assay type: cell-based, Staphylococcus aureus
Experimental: as §2, §3, §4, §7

[9] = system: S. aureus 30857, a rifampin-resistant isolate; assay type: cell-based, Staphylococcus aureus; conditions: strain 30857
Experimental: as §1, §2, §3, §4, §5, §6

[10] = route IMM (intramammary), 1 hour after infection
[11] = Staphylococcus aureus, read-out: MIC

Row | SMILES | % reduction ([1]; 1X MIC) | CFU/ml ISD (×10^3) ([1]; 1X MIC) | % reduction ([1]; 100X MIC) | CFU/ml ISD (×10^3) ([1]; 100X MIC) | Mutation frequency (S. aureus B83-1 [3]; 1 μg/ml) | Mutation frequency (S. aureus B83-1 [3]; 10 μg/ml) | Mutation frequency (S. aureus B83-1 [3]; 100 μg/ml) | Mutation frequency (S. aureus ATCC 29213 [4]; 1 μg/ml) | Mutation frequency (S. aureus ATCC 29213 [4]; 10 μg/ml) | Mutation frequency (S. aureus ATCC 29213 [4]; 100 μg/ml) | ED (mg/kg/d) Mastitis [5, 10] | ED (mg/kg/d) Culture ([5]; route IMM (intramammary)) | Mutation frequency ([9]; 1 μg/ml) | Mutation frequency ([9]; 10 μg/ml) | Mutation frequency ([9]; 100 μg/ml) | further results
1 | COC1/C=C/OC2(C)Oc3c(C)c(O)c4c(=O)c(c5oc6cc(N7CCN(C)CC7)cc(O)c6nc-5c4c3C2=O)NC(=O)/C(C)=C\C=C\C(C)C(O)C(C)C(O)C(C)C(OC(C)=O)C1C (stereo not shown) [R = methyl] | 92.0% | 0.3 ± 0.1 CFU/ml (×10^3) | 100% | 0.0 CFU/ml (×10^3) | 1.5 × 10^−8 | <1.8 × 10^−9 | <1.8 × 10^−9 | 2.1 × 10^−9 | <1.1 × 10^−9 | <1.1 × 10^−9 | 0.3 mg/kg/day | 0.3 mg/kg/day | <1.6 × 10^−10 | <1.6 × 10^−10 | <1.6 × 10^−10 | MIC [2]: ≦0.03 μg/ml; ED (mg/kg/d) Culture ([5]; route SC (subcutaneous)): 0.5 mg/kg/day; ED (mg/kg/d) Mastitis ([5]; route SC (subcutaneous)): 0.2 mg/kg/day; MIC (S. aureus ATCC 29213 [6]): 0.061 ng/mL (≈ 0.0679 nM); effectiveness against rifampin-resistant strains ([7]; MIC, in words): effective against rifampin-resistant strains; MIC [7]: 500 ng/mL (≈ 556 nM); MIC (S. aureus 6097): 0.061 ng/mL (≈ 0.0679 nM); MIC (S. aureus B83-1 [8]): 0.061 ng/mL (≈ 0.0679 nM)
2 | CO[C@H]1/C=C/O[C@@]2(C)Oc3c(C)c(O)c4c(O)c(c(/C=N/N5CCN(C)CC5)c(O)c4c3C2=O)NC(=O)/C(C)=C\C=C\[C@H](C)[C@H](O)[C@@H](C)[C@@H](O)[C@@H](C)[C@H](OC(C)=O)[C@@H]1C [Rifampin, reference compound] | 83.0% | 0.6 ± 0.3 CFU/ml (×10^3) | 85.0% | 0.5 ± 0.2 CFU/ml (×10^3) | 3.7 × 10^−8 | 4.5 × 10^−8 | 1.9 × 10^−8 | 2.6 × 10^−8 | 2.5 × 10^−8 | 1.9 × 10^−8 | 0.4 mg/kg/day | >2.0 mg/kg/day | >1.0 × 10^−7 | >1.0 × 10^−7 | >1.0 × 10^−7 | MIC ([2]; read-out: MIC): ≤ 30 ng/mL; MIC (S. aureus ATCC 29213 [6]; Staphylococcus aureus, ATCC29213, read-out: MIC): 1.9 ng/mL (≈ 2.31 nM); MIC [7, 11]: > 4000 ng/mL; MIC (S. aureus 6097; [11]): 1.9 ng/mL (≈ 2.31 nM); MIC (S. aureus B83-1 [8]; Staphylococcus aureus, B831, read-out: MIC): 1.9 ng/mL (≈ 2.31 nM)
